Earlier results as cited in patent publication US7368249B2, “Methods and compositions for evaluation and modulation of fertility” (The Curators of the University of Missouri, priority 2003, dated 2008).

System: maturing reticulocytes
Conditions: presence vs absence of ETYA

CCCCCC#CCC#CCC#CCC#CCCCC(=O)O [ETYA, 5,8,11,14-eicosatetraynoic acid]
mitochondrial degradation in maturing reticulocytes: delayed
